Several values for one entry are separate records, joined by “and”; a condition that tells them apart may be missing. Equal values may be shown once.
Tests used:
[1] = xn = mol fraction of the nth substance listed; conditions: 298.15 K, 101 kPa, Liquid; for speed of sound: Linear variable-path acoustic interferometer; for mass density: Pycnometric method
[2] = refractive index (Na D-line) (dimensionless); xn = mol fraction of the nth substance listed; conditions: 298.15 K, 101 kPa, Liquid, Abbe refractometer
[3] = 298.15 K, 101 kPa, Liquid; for mass density: Pycnometric method
[4] = refractive index (Na D-line) (dimensionless); conditions: 298.15 K; 101.33 kPa; Liquid; Abbe refractometer

COCCO [2-methoxyethan-1-ol] + O
Conditions	mass density, [1] [kg/m3]	refractive index, [2]	speed of sound, [1] [m/s]
x1 = 0.0202	999.08	1.34	1546.5
x1 = 0.04	1001.08	1.346	1581
x1 = 0.0539	1002.4	1.35	1600.9
x1 = 0.0822	1004.71	1.357	1636.5
x1 = 0.101	1005.84	1.361	1643.7
x1 = 0.1509	1007.02	1.37	1654.7
x1 = 0.2036	1005.67	1.378	1641.7
x1 = 0.3025	999.82	1.386	1587.3
x1 = 0.4033	992.74	1.391	1532.3
x1 = 0.5009	985.91	1.394	1488.5
x1 = 0.5514	982.57	1.395	1470.9
x1 = 0.6976	974	1.396	1418.8
x1 = 0.7855	969.57	1.398	1392
x1 = 0.889	964.87	1.398	1369.3
x1 = 1	960.23	1.4002	1341.7

CCOCCOCCO [3,6-dioxa-1-octanol]
Conditions	speed of sound [m/s]
[3], Linear variable-path acoustic interferometer	1378

Conditions	mass density [kg/m3]	refractive index
[3]	984.6	–
[4]	–	1.425

CCOCCOCCO [3,6-dioxa-1-octanol] + O
Conditions	mass density, [1] [kg/m3]	refractive index, [2]	speed of sound, [1] [m/s]
x1 = 0.013	1001.37	1.3424	1562
x1 = 0.025	1005.93	1.3515	1602
x1 = 0.05	1013.24	1.3654	1656
x1 = 0.06	1015.27	1.3695	1670.5
x1 = 0.076	1017.84	1.376	1670
x1 = 0.101	1020.05	1.3837	1658
x1 = 0.152	1019.56	1.396	1621
x1 = 0.202	1017.51	1.4028	1601.9
x1 = 0.302	1011.81	1.4108	1549.5
x1 = 0.402	1005.59	1.414	1500
x1 = 0.519	999.21	1.4198	1460
x1 = 0.59	996.2	1.4203	1442
x1 = 0.775	990.78	1.4228	1412
x1 = 0.852	988.76	1.4235	1398
x1 = 1	984.6	1.425	1378

O [water]
Conditions	mass density [kg/m3]	refractive index
[3]	999.704	–
[4]	–	1.333 and 1.3325

O [water] + CCOCCO
x2 = 0
Conditions	mass density [kg/m3]	refractive index
[1]	999.704	–
[2]	–	1.3325

O [water] + CCOCCOCCO
x2 = 0
Conditions	mass density [kg/m3]	refractive index
[1]	999.704	–
[2]	–	1.3325

O [water] + COCCO
x2 = 0
Conditions	mass density [kg/m3]	refractive index
[1]	999.704	–
[2]	–	1.333

O [water] + COCCOCCO
x2 = 0
Conditions	mass density [kg/m3]	refractive index
[1]	999.704	–
[2]	–	1.333
